Results as given in ChEMBL document CHEMBL1149726, “New Pentacyclic Compounds from the Okinawan Marine Sponge Xestospongia sapra” (J Nat Prod, 1992).
Values after ≈ are worked out from the molar mass of the structure shown.

Experiments:
[1] = molecular target: T1, DNA topoisomerase 1 (Homo sapiens) (UniProt P11387); assay: Inhibition of DNA topoisomerase 1
T1 sequence (whole entry): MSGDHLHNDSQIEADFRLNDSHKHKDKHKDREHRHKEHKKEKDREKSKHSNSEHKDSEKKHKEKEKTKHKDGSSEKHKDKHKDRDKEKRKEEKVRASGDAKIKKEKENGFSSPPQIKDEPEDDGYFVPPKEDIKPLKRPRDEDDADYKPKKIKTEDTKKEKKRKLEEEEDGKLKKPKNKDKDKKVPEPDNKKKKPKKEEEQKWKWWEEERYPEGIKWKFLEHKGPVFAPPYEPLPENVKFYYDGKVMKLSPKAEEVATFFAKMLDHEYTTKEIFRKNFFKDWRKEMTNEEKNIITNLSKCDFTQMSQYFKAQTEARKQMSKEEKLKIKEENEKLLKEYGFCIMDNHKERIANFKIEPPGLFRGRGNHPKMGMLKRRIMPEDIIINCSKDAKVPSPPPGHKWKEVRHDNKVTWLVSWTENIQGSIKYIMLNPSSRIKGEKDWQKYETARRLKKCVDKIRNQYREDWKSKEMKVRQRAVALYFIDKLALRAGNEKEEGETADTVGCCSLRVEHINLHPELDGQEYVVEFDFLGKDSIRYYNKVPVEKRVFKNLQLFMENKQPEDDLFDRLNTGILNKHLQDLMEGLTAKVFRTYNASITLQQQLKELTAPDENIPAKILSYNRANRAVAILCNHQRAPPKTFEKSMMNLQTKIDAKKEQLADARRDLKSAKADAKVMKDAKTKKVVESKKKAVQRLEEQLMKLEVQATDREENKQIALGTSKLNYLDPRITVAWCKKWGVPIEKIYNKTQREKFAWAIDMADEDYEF

[2] = tested on: L1210; assay: Cytotoxicity against mouse L1210 cells at 10 ug/ml; type: functional
[3] = tested on: KB; assay: Cytotoxicity against human KB cells at 10 ug/ml; type: functional
[4] = tested on: L1210; assay: Cytotoxicity against mouse L1210 cells; type: functional, cell-based
[5] = tested on: KB; assay: Cytotoxicity against human KB cells; type: functional, cell-based

| SMILES | MIC [1] [µg/mL] | Activity [2] [%] | Activity [3] [%] | IC50 [4] [µg/mL] | IC50 [5] [µg/mL] |
| --- | --- | --- | --- | --- | --- |
| C[C@@]12CC[C@H](O)[C@@H]3COC(=C31)C(=O)c1cc3c(cc12)C(=O)CCC3O (some centres not stated) | 2.5 (≈ 7.34 µM) | 14.5 | 9.8 |  |  |
| C[C@@]12CCCc3coc(c31)C(=O)c1cc3c(O)ccc(OS(=O)(=O)[O-])c3cc12.[Na+] [XESTOQUINOL SULFATE SODIUM] | 10 | 25.4 |  |  |  |
| C[C@@]12CC[C@H](O)[C@@H]3COC(=C31)C(=O)c1cc3c(cc12)C(O)CCC3=O (some centres not stated) [XESTOSAPROL A] | 12.5 (≈ 36.7 µM) | 34.9 | 30.1 |  |  |

Second part, led by results:

| MIC [1] [µg/mL] | SMILES | Activity [2] [%] | Activity [3] [%] | IC50 [4] [µg/mL] | IC50 [5] [µg/mL] |
| --- | --- | --- | --- | --- | --- |
| > 50 | C[C@@]12CCC(=O)c3coc(c31)C(=O)c1cc3c(O)ccc(OS(=O)(=O)[O-])c3cc12.[Na+] [HALENAQUINOL SULFATE SODIUM] | 22.4 | 12.2 |  |  |
| 0.4 (≈ 1.2 µM) | C[C@@]12CCC(=O)c3coc(c31)C(=O)c1cc3c(cc12)C(=O)C=CC3=O [HELENAQUINONE] |  |  | 1.6 (≈ 4.81 µM) | 3.1 (≈ 9.33 µM) |
| 2 (≈ 6.28 µM) | C[C@@]12CCCc3coc(c31)C(=O)c1cc3c(cc12)C(=O)C=CC3=O [XESTOQUINONE] |  |  | 0.17 (≈ 0.534 µM) | 1.7 (≈ 5.34 µM) |
